The nature of one test: HCV replicon assay (luciferase) in ET (Huh-lucubineo-ET) cell line. Particulars: Hepatitis C virus; tested at 5 μM; inhibition of replication relative to no compound control; ET replicon cells, luciferase 48-72 hours. It is filed as cell-based. The source says: A cell line, ET (Huh-lucubineo-ET) was used for screening of compounds, or pharmaceutically acceptable salts or solvates, described herein for inhibition of HCV RNA dependent RNA polymerase. The ET cell line was stably transfected with RNA transcripts harboring a I389luc-ubi-neo/NS3-3′/ET; replicon with firefly luciferase-ubiquitin-neomycin phosphotransferase fusion protein and EMCV-IRES driven NS3-5B polyprotein containing the cell culture adaptive mutations (E1202G; T1280I; K1846T) (Krieger at al, 2001 and unpublished). The ET cells were grown in DMEM, supplemented with 10% fetal calf serum, 2 mM Glutamine, Penicillin (100 IU/mL)/Streptomycin (100 μg/mL), 1× nonessential amino acids, and 250 μg/mL G418 (“Geneticin”). They were all available through Life Technologies (Bethesda, Md.). The cells were plated at 0.5−1.0×10^4 cells/well in the 96 well plates and incubated for 24 hrs before adding the test compounds. […] Luciferase activity was measured 48-72 hours later by adding a lysis buffer and the substrate (Catalog number Glo-lysis buffer E2661 and Bright-Glo luciferase system E2620 Promega, Madison, Wis.). Cells should not be too confluent during the assay. Percent inhibition of replication was plotted relative to no compound control. Under the same condition, cytotoxicity of the compounds was determined using cell proliferation reagent, WST-1 (Roche, Germany). The compounds showing antiviral activities, but no significant cytotoxicities were chosen to determine the EC50 and TC50, the effective concentration and toxic concentration at which 50% of the maximum inhibition is observed. For these determinations, 6 dilutions of each compound were used. Compounds were typically diluted 3 fold to span a concentration range of 250 fold. EC50 and similarly TC50 values were calculated by fitting % inhibition at each concentration to the following equation:
% inhibition=100%/[(EC50/[I])^b+1]
where b is Hill's coefficient.
Background: A replicon is a self-replicating genome or part of one, used to study replication in cells.
`CCCCCOc1ccc(-c2cc(Cn3cc4nc(-c5ccccc5F)nc-4cn3)on2)cc1` [Compound 107, 2-(2-Fluoro-phenyl)-5-[3-(4-pentyloxy-phenyl)-isoxazol-5-ylmethyl]-5H-imidazo[4,5-d]pyridazine] displayed an inhibition at 5 µM of 98.4%.

For the compound `CCCCOc1ccc(-c2cc(Cn3cc4nc(-c5ccccc5F)nc-4cn3)on2)cc1` [Compound 106, 5-[3-(4-Butoxy-phenyl)-isoxazol-5-ylmethyl]-2-(2-fluoro-phenyl)-5H-imidazo[4,5-d]pyridazine], the inhibition at 5 µM is 99.3%.

Consider `Fc1ccccc1-c1nc2cnn(Cc3cc(-c4ccccc4)no3)cc-2n1` [Compound 111, 2-(2-Fluoro-phenyl)-5-(3-phenyl-isoxazol-5-ylmethyl)-5H-imidazo[4,5-d]pyridazine], for which the inhibition at 5 µM is 16%.

`Fc1ccccc1-c1nc2cnn(Cc3cc(-c4ccc(Cl)cc4)no3)cc-2n1` [Compound 116, 5-[3-(4-Chloro-phenyl)-isoxazol-5-ylmethyl]-2-(2-fluoro-phenyl)-5H-imidazo[4,5-d]pyridazine] came in with an inhibition at 5 µM of 92.1%.

On to `CC(C)Oc1ccc(-c2cc(Cn3cc4nc(-c5cccc(F)c5F)nc-4cn3)on2)cc1` [Compound 102, 2-(2,3-Difluoro-phenyl)-5-[3-(4-isopropoxy-phenyl)-isoxazol-5-ylmethyl]-5H-imidazo[4,5-d]pyridazine], for which the inhibition at 5 µM came out at 99.8%.

The same test, now with this note: Hepatitis C virus; tested at 10 μM; inhibition of replication relative to no compound control; ET replicon cells, luciferase 48-72 hours; read-out: % inhition at 10 μM.
Turning to `CCCCCOc1ccc(-c2cc(Cn3cc4nc(-c5ccccc5F)nc-4cn3)on2)cc1` [Compound 107, 2-(2-Fluoro-phenyl)-5-[3-(4-pentyloxy-phenyl)-isoxazol-5-ylmethyl]-5H-imidazo[4,5-d]pyridazine], the inhibition at 10 µM was 99.4%.

As to `Fc1cc(C(F)(F)F)ccc1-c1cc(Cn2cc3nc(-c4ccccc4F)nc-3cn2)on1` [Compound 279, 2-(2-Fluoro-phenyl)-5-[3-(2-fluoro-4-trifluoromethyl-phenyl)-isoxazol-5-ylmethyl]-5H-imidazo[4,5-d]pyridazine], the inhibition at 10 µM amounted to 98.9%.

With `C[Si](C)(C)C#Cc1ccc(-c2cc(Cn3cc4nc(-c5cccc(F)c5F)nc-4cn3)on2)cc1` [Compound 332, 2-(2,3-Difluoro-phenyl)-5-[3-(4-trimethylsilanylethynyl-phenyl)-isoxazol-5-ylmethyl]-5H-imidazo[4,5-d]pyridazine], the inhibition at 10 µM turned out to be 99%.

Consider `CCCOc1ccc(-c2cc(Cn3cc4nc(-c5cccc(F)c5F)nc-4cn3)no2)cc1` [Compound 243, 2-(2,3-Difluoro-phenyl)-5-[5-(4-propoxy-phenyl)-isoxazol-3-ylmethyl]-5H-imidazo[4,5-d]pyridazine], for which the inhibition at 10 µM was 99.4%.

Consider `Oc1ccc(-c2cc(Cn3cc4nc(-c5cccc(F)c5F)nc-4cn3)on2)c(C(F)(F)F)c1` [Compound 340, 4-{5-[2-(2,3-Difluoro-phenyl)-imidazo[4,5-d]pyridazin-5-ylmethyl]-isoxazol-3-yl}-3-trifluoromethyl-phenol], for which the inhibition at 10 µM worked out at 0.116%.

For `CN(C)CCCOc1ccc(-c2cc(Cn3cc4nc(-c5cccc(F)c5F)nc-4cn3)on2)cc1` [Compound 216, [3-(4-{5-[2-(2,3-Difluoro-phenyl)-imidazo[4,5-d]pyridazin-5-ylmethyl]-isoxazol-3-yl}-phenoxy)-propyl]-dimethyl-amine], the inhibition at 10 µM was 79.1%.

Regarding `CCCCOc1ccc(-c2cc(Cn3cc4nc(-c5cccc(F)c5F)nc-4cn3)on2)cc1` [Compound 222, 5-[3-(4-Butoxy-phenyl)-isoxazol-5-ylmethyl]-2-(2,3-difluoro-phenyl)-5H-imidazo[4,5-d]pyridazine], the inhibition at 10 µM is 98.2%.

Consider `Nc1ccccc1-c1nc2cnn(Cc3cc(-c4ccc(C(F)(F)F)cc4C(F)(F)F)no3)cc-2n1` [Compound 119, 2-{5-[3-(2,4-Bis-trifluoromethyl-phenyl)-isoxazol-5-ylmethyl]-5H-imidazo[4,5-d]pyridazine-2-yl}-phenylamine], for which the inhibition at 10 µM amounted to 0%.

On to `NC(=O)c1ccccc1-c1nc2cnn(Cc3cc(-c4ccc(C(F)(F)F)cc4C(F)(F)F)no3)cc-2n1` [Compound 133, 2-{5-[3-(2,4-Bis-trifluoromethyl-phenyl)-isoxazol-5-ylmethyl]-5H-imidazo[4,5-d]pyridazin-2-yl}-benzamide], for which the inhibition at 10 µM amounted to 10.1%.

`CCCOc1cnc(-c2cc(Cn3cc4nc(-c5cccc(F)c5F)nc-4cn3)on2)cn1` [Compound 315, 2-(2,3-Difluoro-phenyl)-5-[3-(5-propoxy-pyrazin-2-yl)-isoxazol-5-ylmethyl]-5H-imidazo[4,5-d]pyridazine]: the inhibition at 10 µM amounted to 99.3%.

With `CCCCOc1ccc(-c2cc(Cn3cc4nc(-c5ccccc5F)nc-4cn3)on2)cc1` [Compound 106, 5-[3-(4-Butoxy-phenyl)-isoxazol-5-ylmethyl]-2-(2-fluoro-phenyl)-5H-imidazo[4,5-d]pyridazine], the inhibition at 10 µM was determined as 99.7%.

For the compound `Cc1ccc(-c2cc(Cn3cc4nc(-c5cccc(F)c5F)nc-4cn3)on2)c(C(F)(F)F)c1` [Compound 304, 2-(2,3-Difluoro-phenyl)-5-[3-(4-methyl-2-trifluoromethyl-phenyl)-isoxazol-5-ylmethyl]-5H-imidazo[4,5-d]pyridazine], the inhibition at 10 µM worked out at 99.7%.

With `Cc1ccc(-c2cc(Cn3cc4nc(-c5cccc(F)c5F)nc-4cn3)on2)c(C)c1` [Compound 309, 2-(2,3-Difluoro-phenyl)-5-[3-(2,4-dimethyl-phenyl)-isoxazol-5-ylmethyl]-5H-imidazo[4,5-d]pyridazine], the inhibition at 10 µM was determined as 100%.

Regarding `Fc1ccccc1-c1nc2cnn(Cc3nnc(-c4ccc(Cl)cc4)o3)cc-2n1` [Compound 291, 5-[5-(4-Chloro-phenyl)-[1,3,4]oxadiazol-2-ylmethyl]-2-(2-fluoro-phenyl)-5H-imidazo[4,5-d]pyridazine], the inhibition at 10 µM turned out to be 22.5%.

With `Fc1ccccc1-c1nc2cnn(Cc3cc(-c4ccc(Cl)cc4)on3)cc-2n1` [Compound 239, 5-[5-(4-Chloro-phenyl)-isoxazol-3-ylmethyl]-2-(2-fluoro-phenyl)-5H-imidazo[4,5-d]pyridazine], the inhibition at 10 µM turned out to be 95.3%.

On to `CC(c1cc(-c2ccc(C(F)(F)F)cc2C(F)(F)F)no1)n1cc2nc(-c3cccc(F)c3F)nc-2cn1` (stereo not drawn) [Compound 226, 5-{1-[3-(2,4-Bis-trifluoromethyl-phenyl)-isoxazol-5-yl]-ethyl}-2-(2,3-difluoro-phenyl)-5H-imidazo[4,5-d]pyridazine], for which the inhibition at 10 µM worked out at 99.7%.

Regarding `Fc1ccccc1-c1nc2cnn(Cc3cc(-c4ccc(Cl)cc4)no3)cc-2n1` [Compound 116, 5-[3-(4-Chloro-phenyl)-isoxazol-5-ylmethyl]-2-(2-fluoro-phenyl)-5H-imidazo[4,5-d]pyridazine], the inhibition at 10 µM was found to be 92.8%.

`N#Cc1ccc(-c2cc(Cn3cc4nc(-c5ccccc5F)nc-4cn3)on2)cc1` [Compound 284, 4-{5-[2-(2-Fluoro-phenyl)-imidazo[4,5-d]pyridazin-5-ylmethyl]-isoxazol-3-yl}-benzonitrile]: the inhibition at 10 µM stood at 77.4%.

On to `Fc1cc(-c2cc(Cn3cc4nc(-c5cccc(F)c5F)nc-4cn3)on2)ccc1C(F)(F)F` [Compound 206, 2-(2,3-Difluoro-phenyl)-5-[3-(3-fluoro-4-trifluoromethyl-phenyl)-isoxazol-5-ylmethyl]-5H-imidazo[4,5-d]pyridazine], for which the inhibition at 10 µM came to 98.1%.

Take `CC(C)Oc1ccc(-c2cc(Cn3cc4nc(-c5cccc(F)c5F)nc-4cn3)on2)cc1` [Compound 102, 2-(2,3-Difluoro-phenyl)-5-[3-(4-isopropoxy-phenyl)-isoxazol-5-ylmethyl]-5H-imidazo[4,5-d]pyridazine]: the inhibition at 10 µM came to 99.7%.

Regarding `COc1ccc(-c2cc(Cn3cc4nc(-c5cccc(F)c5F)nc-4cn3)on2)c(C(F)(F)F)c1` [Compound 174, 2-(2,3-Difluoro-phenyl)-5-[3-(4-methoxy-2-trifluoromethyl-phenyl)-isoxazol-5-ylmethyl]-5H-imidazo[4,5-d]pyridazine], the inhibition at 10 µM is 99.7%.

Turning to `Fc1cccc(-c2nc3cnn(Cc4cc(-c5ccc(C#CC6CC6)cc5)no4)cc-3n2)c1F` [Compound 339, 5-[3-(4-Cyclopropylethynyl-phenyl)-isoxazol-5-ylmethyl]-2-(2,3-difluoro-phenyl)-5H-imidazo[4,5-d]pyridazine], the inhibition at 10 µM is 99.8%.

The values above are taken from patent US20090197880A1 (Genelabs Technologies, Inc., priority 2007, published 2009).
